From US6100073A, “Acid-stable and thermo-stable enzymes derived from sulfolobus species” (Genencor International, Inc., priority 1994, dated 2000) come the findings set out here.

Structures are written as SMILES.

The target of the assay is enzyme having α-1,4 hydrolytic activity derived from Sulfolobus acidocaldarius DSM 639 (purified, about 95 kDa; EC 3.2.1.1 / amylopullulanase) (Sulfolobus acidocaldarius, UniProt Q4J9M2). Briefly: biochemical. The protocol:
In a hermetically sealed tube, 25 μl of solution C was mixed with 25 μl of water and then added to 250 μl of a solution containing 0.1% (w/v) Lintner'starch (Baker), citrate/phosphate buffer (100 mM/200 mM) at various pH values (as described in detail below). The mixture was then incubated for 15 minutes at various temperatures (see below). Incubation was terminated by transferring the tube to an ice/water bath (0° C.).
The absorbance was measured at 620 nm (Pharmacia LKB Ultraspec Plus).
A blank assay was performed by replacing the 50 μl enzyme solution C with water.
The relative activity (relative units) was calculated from the standard curve by calculation of the value [(ODb -ODs)/ODb ]×100, and then linearly extrapolating the corresponding volume (μl) from the two closest points of the standard curve.
The relative (α-1,4 hydrolytic) activity (%) is defined as the extrapolated volume value (μl), deduced from the standard curve.
Respective samples of Solution C were obtained and prepared as described above in Example 4 to perform the standard assay.
The influence of various metal cations and of EDTA on the α-1,4 hydrolytic activity of the enzyme derived from Sulfolobus acidocaldarius DSM 639 was determined by running the standard assay described above in Example 4 on each of the tubes (samples) in the presence of the additional various metal cations at a final concentration of 2, 5, and 10 mM.

Setting [1] is: read-out: Relative activity (%).

Chain of enzyme having α-1,4 hydrolytic activity derived from Sulfolobus acidocaldarius DSM 639 (purified, about 95 kDa; EC 3.2.1.1 / amylopullulanase) (Q4J9M2 1-884): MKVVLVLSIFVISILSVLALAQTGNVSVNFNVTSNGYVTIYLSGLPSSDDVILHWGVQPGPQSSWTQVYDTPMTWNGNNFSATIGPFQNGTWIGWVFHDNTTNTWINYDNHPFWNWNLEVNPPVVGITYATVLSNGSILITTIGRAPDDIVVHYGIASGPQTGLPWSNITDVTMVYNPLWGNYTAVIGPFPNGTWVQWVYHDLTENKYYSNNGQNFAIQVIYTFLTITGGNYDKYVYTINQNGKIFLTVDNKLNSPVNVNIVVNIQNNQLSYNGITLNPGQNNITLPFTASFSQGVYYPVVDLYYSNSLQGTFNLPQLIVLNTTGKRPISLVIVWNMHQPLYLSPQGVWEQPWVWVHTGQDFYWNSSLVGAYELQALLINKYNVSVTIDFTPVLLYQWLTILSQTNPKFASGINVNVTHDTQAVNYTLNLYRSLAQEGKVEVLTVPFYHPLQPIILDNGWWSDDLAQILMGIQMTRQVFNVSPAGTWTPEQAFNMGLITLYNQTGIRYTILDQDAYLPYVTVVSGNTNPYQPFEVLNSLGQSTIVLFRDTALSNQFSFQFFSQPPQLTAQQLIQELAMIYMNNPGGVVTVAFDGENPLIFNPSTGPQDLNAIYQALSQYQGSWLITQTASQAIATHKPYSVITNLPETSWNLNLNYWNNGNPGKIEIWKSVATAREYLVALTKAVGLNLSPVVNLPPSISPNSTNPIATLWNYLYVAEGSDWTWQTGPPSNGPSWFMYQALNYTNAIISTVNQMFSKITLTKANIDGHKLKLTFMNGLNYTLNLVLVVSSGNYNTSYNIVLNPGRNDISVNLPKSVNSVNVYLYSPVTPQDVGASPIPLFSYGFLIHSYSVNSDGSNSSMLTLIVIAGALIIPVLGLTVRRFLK

On to `O=C(O)CN(CCN(CC(=O)O)CC(=O)O)CC(=O)O` [EDTA], for which the “α-1,4 hydrolytic activity in the absence of calcium (with EDTA)” value (EDTA 2-10 mM, summary of Table 6) is listed as “fully active”. Besides, under setting [1], the activity at 2000 µM came out at 97%, the activity at 5000 µM stood at 101% and the activity at 10000 µM amounted to 98%.
